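Following 48 hours of exposure in 96-well plates, responses at five concentrations were used to interpolate endpoints linearly. At the GI50, growth is halved.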 The source made the active and inactive calls. Cut-off read from the data, not from the text of the source: active = GI50 up to about 1.1 µM and inactive = higher.
What was measured:
Experiment in all cases: growth of human tumour cells (NCI), 48 h
[1] = system: EKVX
[2] = system: OVCAR-4
[3] = system: SF-268
[4] = system: DMS-114
[5] = system: NCI-H23
[6] = system: CCRF-CEM
[7] = system: NCI-H522
[8] = system: SF-295
[9] = system: Malme-3M
[10] = system: A549
[11] = system: HCT-116
[12] = system: UO-31
[13] = system: HCC 2998
[14] = system: SK-MEL-28
[15] = system: SNB-19
[16] = system: HL-60
[17] = system: MDA-MB-231
[18] = system: T47D
[19] = system: DU-145
[20] = system: MDA-MB-435

Measured: GI50

CCCO/S(=N\S(=O)(=O)c1ccccc1)c1ccccc1[N+](=O)[O-] (stereo not drawn)
inactive: [1] > 100 µM | [2] > 100 µM | [3] > 100 µM | [4] > 100 µM | [5] > 100 µM | [6] > 100 µM | [7] > 100 µM | [8] > 100 µM | [9] > 100 µM | [10] > 100 µM | [11] > 100 µM | [12] > 100 µM | [13] > 100 µM | [14] 63.8 µM | [15] > 100 µM

CCCCCCCCCCCCCCCCCC(=O)NCCCNCCCNC(=O)CCCCCCCCCCCCCCCCC
inactive: [2] > 100 µM | [3] > 100 µM | [4] > 100 µM | [5] > 100 µM | [6] > 100 µM | [8] > 100 µM | [9] > 100 µM | [10] > 100 µM | [11] > 100 µM | [16] > 100 µM | [12] > 100 µM | [13] > 100 µM | [14] > 100 µM | [15] > 100 µM

O=C(NCCCCCCNC(=O)c1cccc2ccccc12)c1cccc2ccccc12
inactive: [1] 20.5 µM | [2] 14.4 µM | [3] 10.3 µM | [4] > 100 µM | [5] 31.5 µM | [6] > 100 µM | [7] 17.9 µM | [8] 1.93 µM | [9] 33.3 µM | [10] 35.4 µM | [11] 14.4 µM | [16] > 100 µM | [12] 31.5 µM | [14] > 100 µM

CN(C)CCCNC(=O)N/N=C/c1cccc([N+](=O)[O-])c1
inactive: [2] > 100 µM | [3] > 100 µM | [4] > 100 µM | [5] > 100 µM | [6] > 100 µM | [7] > 100 µM | [8] > 100 µM | [9] > 100 µM | [10] > 100 µM | [11] > 100 µM | [14] > 100 µM | [15] > 100 µM

N=C(N)c1ccc(/N=N\c2c(O)c(C(=O)Nc3ccccc3)cc3ccccc23)cc1
inactive: [17] 8.04 µM | [1] 17 µM | [2] 17.8 µM | [3] 19.9 µM | [18] 17.4 µM | [5] 21.9 µM | [19] > 100 µM | [6] 2.33 µM | [7] 10.1 µM | [8] > 60.3 µM | [9] 32.1 µM | [10] > 59.6 µM | [11] 3.3 µM | [16] 7.98 µM | [12] 75.5 µM | [13] > 37.6 µM | [14] > 100 µM | [20] 41.5 µM | [15] 19.6 µM

CCOC(=O)NC(=O)c1cn(CC(=O)NCC(=O)NCC(=O)N2CCN(CCn3c(C)nc(C(N)=O)c3N)CC2)c(=O)[nH]c1=O
inactive: [3] > 100 µM | [4] > 100 µM | [5] > 100 µM | [6] > 100 µM | [8] > 100 µM | [9] > 100 µM | [10] > 100 µM | [11] > 100 µM | [16] > 100 µM | [12] > 100 µM | [13] > 100 µM | [14] > 100 µM | [15] > 100 µM

NC(Cc1ccccc1)C(=O)OCN1C(=O)C2C3C=CC(C2C1=O)C1C2C(=O)N(COC(=O)C(N)Cc4ccccc4)C(=O)C2C31 (stereo not drawn)
inactive: [2] 23.3 µM | [3] 17.4 µM | [4] 16.1 µM | [5] 19.9 µM | [6] 22.8 µM | [8] 41.7 µM | [10] 23.2 µM | [11] 23 µM | [16] 32.2 µM | [14] 18.6 µM | [15] 43.1 µM

CC(=O)Oc1ccn2nc(C)c(Br)c2c1Br
inactive: [17] 23 µM | [1] 29 µM | [2] 16.8 µM | [3] 25.5 µM | [18] 29.3 µM | [5] 18.3 µM | [19] 59.4 µM | [6] 21.6 µM | [7] 17.6 µM | [8] 30.5 µM | [9] 22.4 µM | [10] 23.1 µM | [11] 23 µM | [16] 29 µM | [12] 4.6 µM | [13] 20.7 µM | [14] 21.4 µM | [20] 17.9 µM | [15] 49.9 µM

O=c1[nH]nc2ccccc2c1Cl
inactive: [1] 4.29 µM | [2] 11.2 µM | [3] 17.8 µM | [4] 4.89 µM | [5] 15.1 µM | [6] 6.14 µM | [8] 20.5 µM | [9] 16.2 µM | [10] 29.3 µM | [11] 16.3 µM | [12] 15 µM | [13] 1.52 µM | [14] > 10 µM | [15] 16.1 µM

Cn1c(=O)[nH]n(-c2ccc3ccccc3c2)c1=O
inactive: [17] > 100 µM | [1] > 100 µM | [2] > 100 µM | [3] > 100 µM | [18] > 100 µM | [5] > 100 µM | [19] > 100 µM | [6] > 100 µM | [7] > 100 µM | [8] > 100 µM | [9] > 100 µM | [10] > 100 µM | [11] > 100 µM | [16] > 100 µM | [12] > 100 µM | [13] > 100 µM | [14] > 100 µM | [20] > 100 µM | [15] > 100 µM

Brc1ccc(/N=c2/nc3ccccn3n3nc(-c4ccccc4)cc23)cc1
inactive: [1] 47.6 µM | [2] 5.89 µM | [3] 41.6 µM | [4] 99.8 µM | [5] 55.3 µM | [6] > 100 µM | [7] 17.3 µM | [8] 34.8 µM | [9] 4.34 µM | [10] 56.5 µM | [11] 52.6 µM | [16] > 100 µM | [12] > 100 µM | [14] 36 µM | [15] 28.5 µM

CC(=O)N1c2ccccc2C2=NN=C(N(C)C)SC21 (stereo not drawn)
inactive: [17] 1.89 µM | [1] 2.75 µM | [2] 10.4 µM | [3] 1.82 µM | [18] 3.52 µM | [5] 5.19 µM | [19] 1.58 µM | [6] 2.1 µM | [7] 2.3 µM | [8] 2.41 µM | [9] 3.37 µM | [10] 2.89 µM | [11] 2.72 µM | [16] 2.14 µM | [12] 1.45 µM | [13] 2.72 µM | [14] 3.47 µM | [20] 6.56 µM | [15] 3.85 µM

O=C(c1ccco1)N(Cc1ccco1)C(=S)Nc1ccccc1
inactive: [17] 13.3 µM | [1] 45.9 µM | [2] 25.6 µM | [3] 20.2 µM | [18] 14.1 µM | [5] 13.5 µM | [19] 33.2 µM | [6] 3.79 µM | [7] 16.9 µM | [8] 32.2 µM | [9] 14.7 µM | [10] 29.7 µM | [11] 6.37 µM | [16] 1.79 µM | [12] 16.5 µM | [13] 33.1 µM | [14] 15 µM | [20] 10.6 µM | [15] 46.9 µM
